Reference: ChEMBL document CHEMBL1201861, “Genomics of Drug Sensitity in Cancer screening data, Wellcome Trust Sanger Institute”

What was measured:
Test in all cases: cells
Settings in all cases: Homo sapiens
COLO-741 = type: functional, cell-based
Description: SANGER: Inhibition of human COLO-741 cell growth in a cell viability assay.

COLO-824 = type: functional, cell-based
Description: SANGER: Inhibition of human COLO-824 cell growth in a cell viability assay.

DMS-79 = type: functional, cell-based;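 further: growth inhibition measured with a cell viability assay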
Description: SANGER: Inhibition of human DMS-79 cell growth in a cell viability assay.

DU-4475 = type: functional, cell-based
Description: SANGER: Inhibition of human DU-4475 cell growth in a cell viability assay.

EB-3 = type: functional, cell-based;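 further: human EB-3 cells, growth inhibition read out via a cell viability assay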
Description: SANGER: Inhibition of human EB-3 cell growth in a cell viability assay.

EC-GI-10 = type: functional, cell-based
Description: SANGER: Inhibition of human EC-GI-10 cell growth in a cell viability assay.

ES4 = type: functional, cell-based;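 further: growth inhibition of human ES4 cells, read out by a cell viability assay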
Description: SANGER: Inhibition of human ES4 cell growth in a cell viability assay.

ES6 = type: functional, cell-based;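 further: growth inhibition of human ES6 cells, read out with a cell viability assay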
Description: SANGER: Inhibition of human ES6 cell growth in a cell viability assay.

ETK-1 = type: functional, cell-based;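 further: growth inhibition of human ETK-1 cells, read out with a cell viability assay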
Description: SANGER: Inhibition of human ETK-1 cell growth in a cell viability assay.

EW-11 = type: functional, cell-based;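 further: growth inhibition of human EW-11 cells, measured with a cell viability assay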
Description: SANGER: Inhibition of human EW-11 cell growth in a cell viability assay.

EW-13 = type: functional, cell-based;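 further: growth inhibition of EW-13 cells, read out with a cell viability assay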
Description: SANGER: Inhibition of human EW-13 cell growth in a cell viability assay.

EW-16 = type: functional, cell-based;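 further: growth inhibition of human EW-16 cells, read out as cell viability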
Description: SANGER: Inhibition of human EW-16 cell growth in a cell viability assay.

EW-24 = type: functional, cell-based;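 further: human EW-24 cancer cell line, growth inhibition read out via a cell viability assay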
Description: SANGER: Inhibition of human EW-24 cell growth in a cell viability assay.

EW-3 = type: functional, cell-based;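 further: cell viability assay read-out, IC50 reflects inhibition of growth of the EW-3 cells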
Description: SANGER: Inhibition of human EW-3 cell growth in a cell viability assay.

FTC-133 = type: functional, cell-based
GI-1 = type: functional, cell-based
Description: SANGER: Inhibition of human GI-1 cell growth in a cell viability assay.

HCE-T = type: functional, cell-based;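 further: cell viability assay read-out, reporting inhibition of HCE-T cell growth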
Description: SANGER: Inhibition of human HCE-T cell growth in a cell viability assay.

HEL = type: functional, cell-based;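 further: growth inhibition of HEL cells, read out with a cell viability assay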
Description: SANGER: Inhibition of human HEL cell growth in a cell viability assay.

HT1197 = type: functional, cell-based, HT-1197
Description: SANGER: Inhibition of human HT-1197 cell growth in a cell viability assay.

KE-37 = type: functional, cell-based;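 further: growth inhibition of KE-37 cells, read out with a cell viability assay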
Description: SANGER: Inhibition of human KE-37 cell growth in a cell viability assay.

KURAMOCHI = type: functional, cell-based;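 further: growth inhibition of KURAMOCHI cells, read out with a cell viability assay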
Description: SANGER: Inhibition of human KURAMOCHI cell growth in a cell viability assay.

KYSE-150 cell line = type: functional, cell-based;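 further: growth inhibition of human KYSE-150 cells, read out with a cell viability assay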
Description: SANGER: Inhibition of human KYSE-150 cell growth in a cell viability assay.

LB373-MEL-D = type: functional, cell-based;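 further: growth inhibition of the cell line, read out in a cell viability assay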
Description: SANGER: Inhibition of human LB373-MEL-D cell growth in a cell viability assay.

LNCaP-Clone-FGC = type: functional, cell-based
Description: SANGER: Inhibition of human LNCaP-Clone-FGC cell growth in a cell viability assay.

LS-123 = type: functional, cell-based
Description: SANGER: Inhibition of human LS-123 cell growth in a cell viability assay.

LS-513 = type: functional, cell-based
Description: SANGER: Inhibition of human LS-513 cell growth in a cell viability assay.

LU-139 = type: functional, cell-based
Description: SANGER: Inhibition of human LU-139 cell growth in a cell viability assay.

MFH-ino = type: functional, cell-based;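 further: growth inhibition of human MFH-ino cells, read out by a cell viability assay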
Description: SANGER: Inhibition of human MFH-ino cell growth in a cell viability assay.

MIA PaCa-2 = type: functional, cell-based;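 further: growth inhibition of MIA PaCa-2 cells, read out with a cell viability assay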
Description: SANGER: Inhibition of human MIA-PaCa-2 cell growth in a cell viability assay.

MKN-1 = type: functional, cell-based;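 further: growth inhibition of human MKN1 cells, read out by a cell viability measurement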
Description: SANGER: Inhibition of human MKN1 cell growth in a cell viability assay.

ML-2 = type: functional, cell-based;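 further: growth inhibition of ML-2 cells, measured with a cell viability readout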
Description: SANGER: Inhibition of human ML-2 cell growth in a cell viability assay.

MN-60 = type: functional, cell-based;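 further: growth inhibition of the MN-60 cell line, determined with a cell viability assay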
Description: SANGER: Inhibition of human MN-60 cell growth in a cell viability assay.

MPP-89 = type: functional, cell-based;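 further: growth inhibition of human MPP-89 cells, read out with a cell viability assay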
Description: SANGER: Inhibition of human MPP-89 cell growth in a cell viability assay.

MZ1-PC = type: functional, cell-based;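 further: cell viability assay measuring growth inhibition of human MZ1-PC cells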
Description: SANGER: Inhibition of human MZ1-PC cell growth in a cell viability assay.

MeWo = type: functional, cell-based;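 further: growth inhibition of MeWo cells, determined by a cell viability readout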
Description: SANGER: Inhibition of human Mewo cell growth in a cell viability assay.

NB5 = type: functional, cell-based;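 further: growth inhibition of NB5 cells, read out as cell viability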
Description: SANGER: Inhibition of human NB5 cell growth in a cell viability assay.

NCI-H1299 = type: functional, cell-based;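 further: growth inhibition of human NCI-H1299 cells, read out by a cell viability assay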
Description: SANGER: Inhibition of human NCI-H1299 cell growth in a cell viability assay.

NCI-H1304 = type: functional, cell-based;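 further: growth inhibition of the cancer cell line, measured in a cell viability assay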
Description: SANGER: Inhibition of human NCI-H1304 cell growth in a cell viability assay.

NCI-H1648 = type: functional, cell-based;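 further: cell viability assay measuring inhibition of NCI-H1648 cell growth, from the Sanger screening data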
Description: SANGER: Inhibition of human NCI-H1648 cell growth in a cell viability assay.

NCI-H446 = type: functional, cell-based;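 further: growth inhibition of NCI-H446 cells determined by a cell viability assay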
Description: SANGER: Inhibition of human NCI-H446 cell growth in a cell viability assay.

SNU-5 = type: functional, cell-based;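 further: cell viability readout used to measure growth inhibition in human NCI-SNU-5 cells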
Description: SANGER: Inhibition of human NCI-SNU-5 cell growth in a cell viability assay.

NOMO-1 = type: functional, cell-based;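 further: growth inhibition of human NOMO-1 cells measured by a cell viability assay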
Description: SANGER: Inhibition of human NOMO-1 cell growth in a cell viability assay.

OCI-AML2 = type: functional, cell-based;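 further: growth inhibition of OCI-AML2 cells, read out with a cell viability assay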
Description: SANGER: Inhibition of human OCI-AML2 cell growth in a cell viability assay.

OMC-1 = type: functional, cell-based;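 further: growth inhibition of the OMC-1 cell line, measured by a cell viability assay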
Description: SANGER: Inhibition of human OMC-1 cell growth in a cell viability assay.

OS-RC-2 = type: functional, cell-based;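 further: growth inhibition of human OS-RC-2 cells, measured by a cell viability assay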
Description: SANGER: Inhibition of human OS-RC-2 cell growth in a cell viability assay.

OVCAR-5 = type: functional, cell-based;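 further: growth inhibition of human OVCAR-5 cells, read out with a cell viability assay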
Description: SANGER: Inhibition of human OVCAR-5 cell growth in a cell viability assay.

RS4-11 = type: functional, cell-based;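 further: growth inhibition of RS4-11 cells, read out by a cell viability assay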
Description: SANGER: Inhibition of human RS4-11 cell growth in a cell viability assay.

SF-268 = type: functional, cell-based;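 further: growth inhibition of SF-268 cells determined with a cell viability assay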
Description: SANGER: Inhibition of human SF268 cell growth in a cell viability assay.

SK-MEL-1 = type: functional, cell-based;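 further: growth inhibition of human SK-MEL-1 cells, read out by a cell viability assay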
Description: SANGER: Inhibition of human SK-MEL-1 cell growth in a cell viability assay.

SK-OV-3 = type: functional, cell-based;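 further: growth inhibition of SK-OV-3 human cells, read out with a cell viability assay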
Description: SANGER: Inhibition of human SK-OV-3 cell growth in a cell viability assay.

SK-UT-1 = type: functional, cell-based;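 further: growth inhibition of SK-UT-1 cells, measured by a cell viability assay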
Description: SANGER: Inhibition of human SK-UT-1 cell growth in a cell viability assay.

SW 954 = type: functional, cell-based;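 further: growth inhibition of SW954 human cancer cells, read out as cell viability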
Description: SANGER: Inhibition of human SW954 cell growth in a cell viability assay.

A498 = type: functional, cell-based;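 further: growth inhibition of human A498 cells, read out with a cell viability assay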
Description: SANGER: Inhibition of human A498 cell growth in a cell viability assay.

AGS = type: functional, cell-based;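 further: growth inhibition of AGS cells, determined with a cell viability assay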
Description: SANGER: Inhibition of human AGS cell growth in a cell viability assay.

ATN-1 = type: functional, cell-based;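 further: growth inhibition of human ATN-1 cells, read out with a cell viability assay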
Description: SANGER: Inhibition of human ATN-1 cell growth in a cell viability assay.

BB49-HNC = type: functional, cell-based;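 further: cell viability assay read-out, reported as inhibition of BB49-HNC cell growth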
Description: SANGER: Inhibition of human BB49-HNC cell growth in a cell viability assay.

BFTC-909 = type: functional, cell-based
Description: SANGER: Inhibition of human BFTC-909 cell growth in a cell viability assay.

BT-474 = type: functional, cell-based
Description: SANGER: Inhibition of human BT-474 cell growth in a cell viability assay.

C2BBe1 = type: functional, cell-based;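 further: growth inhibition of C2BBe1 cells, read out through a viability assay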
Description: SANGER: Inhibition of human C2BBe1 cell growth in a cell viability assay.

C8166 = type: functional, cell-based;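 further: growth inhibition of human C8166 cells measured by a cell viability assay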
Description: SANGER: Inhibition of human C8166 cell growth in a cell viability assay.

TE-6 = type: functional, cell-based;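 further: growth inhibition of TE-6 cells, read out with a cell viability assay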
Description: SANGER: Inhibition of human TE-6 cell growth in a cell viability assay.

TK-10 = type: functional, cell-based
Description: SANGER: Inhibition of human TK10 cell growth in a cell viability assay.

VA-ES-BJ = type: functional, cell-based
Description: SANGER: Inhibition of human VA-ES-BJ cell growth in a cell viability assay.

no-10 = type: functional, cell-based
Description: SANGER: Inhibition of human no-10 cell growth in a cell viability assay.

no-11 = type: functional, cell-based
Description: SANGER: Inhibition of human no-11 cell growth in a cell viability assay.

CCRF-CEM = type: functional, cell-based
Description: SANGER: Inhibition of human CCRF-CEM cell growth in a cell viability assay.

Compound: O=c1[nH]c2ccccc2n1C1CCN(Cc2ccc(-c3nc4cc5[nH]cnc5cc4nc3-c3ccccc3)cc2)CC1
- IC50 (COLO-741): > 2.56 µM
- IC50 (COLO-824): > 2.56 µM
- IC50 (DMS-79): > 2.56 µM
- IC50 (DU-4475): > 2.56 µM
- IC50 (EB-3): > 2.56 µM
- IC50 (EC-GI-10): > 2.56 µM
- IC50 (ES4): > 2.56 µM
- IC50 (ES6): > 2.56 µM
- IC50 (ETK-1): > 2.56 µM
- IC50 (EW-11): > 2.56 µM
- IC50 (EW-13): > 2.56 µM
- IC50 (EW-16): > 2.56 µM
- IC50 (EW-24): > 2.56 µM
- IC50 (EW-3): > 2.56 µM
- IC50 (FTC-133): > 2.56 µM
- IC50 (GI-1): > 2.56 µM
- IC50 (HCE-T): > 2.56 µM
- IC50 (HEL): > 2.56 µM
- IC50 (HT1197): > 2.56 µM
- IC50 (KE-37): 1.84 µM
- IC50 (KURAMOCHI): 2.31 µM
- IC50 (KYSE-150 cell line): > 2.56 µM
- IC50 (LB373-MEL-D): > 2.56 µM
- IC50 (LNCaP-Clone-FGC): > 2.56 µM
- IC50 (LS-123): > 2.56 µM
- IC50 (LS-513): > 2.56 µM
- IC50 (LU-139): > 2.56 µM
- IC50 (MFH-ino): > 2.56 µM
- IC50 (MIA PaCa-2): > 2.56 µM
- IC50 (MKN-1): > 2.56 µM
- IC50 (ML-2): > 2.56 µM
- IC50 (MN-60): > 2.56 µM
- IC50 (MPP-89): > 2.56 µM
- IC50 (MZ1-PC): > 2.56 µM
- IC50 (MeWo): > 2.56 µM
- IC50 (NB5): > 2.56 µM
- IC50 (NCI-H1299): > 2.56 µM
- IC50 (NCI-H1304): > 2.56 µM
- IC50 (NCI-H1648): > 2.56 µM
- IC50 (NCI-H446): > 2.56 µM
- IC50 (SNU-5): > 2.56 µM
- IC50 (NOMO-1): > 2.56 µM
- IC50 (OCI-AML2): > 2.56 µM
- IC50 (OMC-1): > 2.56 µM
- IC50 (OS-RC-2): > 2.56 µM
- IC50 (OVCAR-5): > 2.56 µM
- IC50 (RS4-11): > 2.56 µM
- IC50 (SF-268): > 2.56 µM
- IC50 (SK-MEL-1): > 2.56 µM
- IC50 (SK-OV-3): > 2.56 µM
- IC50 (SK-UT-1): 1.35 µM
- IC50 (SW 954): > 2.56 µM
- IC50 (A498): 1.08 µM
- IC50 (AGS): > 2.56 µM
- IC50 (ATN-1): > 2.56 µM
- IC50 (BB49-HNC): > 2.56 µM
- IC50 (BFTC-909): > 2.56 µM
- IC50 (BT-474): > 2.56 µM
- IC50 (C2BBe1): > 2.56 µM
- IC50 (C8166): > 2.56 µM
- IC50 (TE-6): > 2.56 µM
- IC50 (TK-10): > 2.56 µM
- IC50 (VA-ES-BJ): > 2.56 µM
- IC50 (no-10): > 2.56 µM
- IC50 (no-11): > 2.56 µM
- IC50 (CCRF-CEM): > 2.56 µM

Compound: Fc1cc(-c2cc[nH]/c(=N/c3ccc(-n4cnc(N5CCOCC5)n4)cc3)n2)cc(N2CCOCC2)c1
- IC50 (COLO-741): > 5.12 µM
- IC50 (COLO-824): 0.637 µM
- IC50 (DMS-79): 4.28 µM
- IC50 (DU-4475): 0.569 µM
- IC50 (EB-3): 1.83 µM
- IC50 (EC-GI-10): 2.24 µM
- IC50 (ES4): 1.39 µM
- IC50 (ES6): 0.406 µM
- IC50 (ETK-1): 1.06 µM
- IC50 (EW-11): 1.21 µM
- IC50 (EW-13): 0.297 µM
- IC50 (EW-16): 0.451 µM
- IC50 (EW-24): > 5.12 µM
- IC50 (EW-3): 4.23 µM
- IC50 (FTC-133): > 5.12 µM
- IC50 (GI-1): 0.171 µM
- IC50 (HCE-T): 2.79 µM
- IC50 (HEL): 0.548 µM
- IC50 (HT1197): 0.611 µM
- IC50 (KE-37): 0.289 µM
- IC50 (KURAMOCHI): 0.598 µM
- IC50 (KYSE-150 cell line): 0.664 µM
- IC50 (LB373-MEL-D): 2.19 µM
- IC50 (LNCaP-Clone-FGC): 0.903 µM
- IC50 (LS-123): 1.25 µM
- IC50 (LS-513): 1.14 µM
- IC50 (LU-139): 1.97 µM
- IC50 (MFH-ino): 1.04 µM
- IC50 (MIA PaCa-2): 1.4 µM
- IC50 (MKN-1): 0.549 µM
- IC50 (ML-2): 0.702 µM
- IC50 (MN-60): 0.894 µM
- IC50 (MPP-89): 3.82 µM
- IC50 (MZ1-PC): 0.195 µM
- IC50 (MeWo): 0.199 µM
- IC50 (NB5): > 5.12 µM
- IC50 (NCI-H1299): 0.366 µM
- IC50 (NCI-H1304): 1.43 µM
- IC50 (NCI-H1648): 0.473 µM
- IC50 (NCI-H446): 1.14 µM
- IC50 (SNU-5): > 5.12 µM
- IC50 (NOMO-1): 0.463 µM
- IC50 (OCI-AML2): 0.498 µM
- IC50 (OMC-1): 3.97 µM
- IC50 (OS-RC-2): 0.39 µM
- IC50 (OVCAR-5): 0.181 µM
- IC50 (RS4-11): 0.28 µM
- IC50 (SF-268): 0.537 µM
- IC50 (SK-MEL-1): 1.33 µM
- IC50 (SK-OV-3): 2.07 µM
- IC50 (SK-UT-1): 0.0616 µM
- IC50 (SW 954): 0.473 µM
- IC50 (A498): 0.171 µM
- IC50 (AGS): 0.415 µM
- IC50 (ATN-1): 0.505 µM
- IC50 (BB49-HNC): > 5.12 µM
- IC50 (BFTC-909): 0.838 µM
- IC50 (BT-474): 1.13 µM
- IC50 (C2BBe1): 0.764 µM
- IC50 (C8166): 0.445 µM
- IC50 (TE-6): 2 µM
- IC50 (TK-10): 1.19 µM
- IC50 (VA-ES-BJ): 0.205 µM
- IC50 (no-10): 1.84 µM
- IC50 (no-11): 1.35 µM
- IC50 (CCRF-CEM): 0.364 µM
